Here are results for 5 compounds from publication PMC10175918 (Communications Biology, 2023).

Where two headings read alike, the source gives them in different places.

Holding throughout (assay): TGFα-shedding assay-based GPCR screening with chimeric Gα subunit proteins
Common to all, as to format: cell-based

Assay [1] addresses T1, 348 GPCRs (Homo sapiens, UniProt O00590).
T1 construct: expressed in transfected cells; host or cells: HEK293A
T1 sequence (O00590 1-384): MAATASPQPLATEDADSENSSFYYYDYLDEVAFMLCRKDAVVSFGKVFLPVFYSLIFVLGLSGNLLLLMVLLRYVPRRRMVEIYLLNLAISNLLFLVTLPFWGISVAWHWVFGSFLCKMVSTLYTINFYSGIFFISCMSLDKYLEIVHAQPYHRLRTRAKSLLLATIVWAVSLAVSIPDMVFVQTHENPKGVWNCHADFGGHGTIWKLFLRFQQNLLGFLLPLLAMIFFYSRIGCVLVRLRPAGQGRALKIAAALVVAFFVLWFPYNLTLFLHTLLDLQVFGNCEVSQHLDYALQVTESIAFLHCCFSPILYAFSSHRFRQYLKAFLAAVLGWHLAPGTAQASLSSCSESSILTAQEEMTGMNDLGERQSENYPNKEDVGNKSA
The settings on record: 10µM, Favipiravir 100μM.

Assay [2] concerns the target T2, 348 GPCRs (Homo sapiens, UniProt P29275).
T2 construct: expressed in transfected cells; host or cells: HEK293A
T2 sequence (P29275 1-332): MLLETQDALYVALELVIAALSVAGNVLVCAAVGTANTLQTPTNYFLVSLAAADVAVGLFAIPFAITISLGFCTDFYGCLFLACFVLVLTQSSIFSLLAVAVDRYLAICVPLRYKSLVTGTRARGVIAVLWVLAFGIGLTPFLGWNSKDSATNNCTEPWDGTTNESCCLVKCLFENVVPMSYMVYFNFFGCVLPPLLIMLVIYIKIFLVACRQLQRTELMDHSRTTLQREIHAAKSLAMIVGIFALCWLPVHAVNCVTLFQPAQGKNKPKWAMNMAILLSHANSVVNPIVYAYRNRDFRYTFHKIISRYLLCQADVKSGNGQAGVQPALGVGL
Particulars: 10µM, Favipiravir 100μM.

For assay [3], the target named is T3, 348 GPCRs (Homo sapiens, UniProt P30518).
T3 construct: expressed in transfected cells; host or cells: HEK293A

Assay [4] concerns the target T4, 348 GPCRs (Homo sapiens, UniProt P35368).
T4 construct: expressed in transfected cells; host or cells: HEK293A
T4 sequence (P35368 1-520): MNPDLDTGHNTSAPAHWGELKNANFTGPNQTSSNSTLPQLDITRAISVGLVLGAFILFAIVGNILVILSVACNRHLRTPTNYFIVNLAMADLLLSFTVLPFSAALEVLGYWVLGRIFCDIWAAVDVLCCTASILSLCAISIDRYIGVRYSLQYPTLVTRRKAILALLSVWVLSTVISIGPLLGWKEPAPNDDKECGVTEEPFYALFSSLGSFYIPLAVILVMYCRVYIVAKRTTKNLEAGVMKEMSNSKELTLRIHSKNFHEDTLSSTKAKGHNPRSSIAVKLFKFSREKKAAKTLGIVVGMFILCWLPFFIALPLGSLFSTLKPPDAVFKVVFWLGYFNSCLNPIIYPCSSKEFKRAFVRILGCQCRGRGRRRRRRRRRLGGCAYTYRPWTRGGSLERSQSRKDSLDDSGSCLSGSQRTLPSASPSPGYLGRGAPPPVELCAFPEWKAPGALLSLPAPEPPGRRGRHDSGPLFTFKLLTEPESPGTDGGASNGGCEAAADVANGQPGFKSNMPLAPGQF

Assay [5] addresses T5, 348 GPCRs (Homo sapiens, UniProt P51685).
T5 construct: expressed in transfected cells; host or cells: HEK293A
Particulars: 10µM, Favipiravir 100μM.

The target in assay [6] is T6, 348 GPCRs (Homo sapiens, UniProt Q02643).
T6 construct: expressed in transfected cells; host or cells: HEK293A
T6 sequence (Q02643 23-423): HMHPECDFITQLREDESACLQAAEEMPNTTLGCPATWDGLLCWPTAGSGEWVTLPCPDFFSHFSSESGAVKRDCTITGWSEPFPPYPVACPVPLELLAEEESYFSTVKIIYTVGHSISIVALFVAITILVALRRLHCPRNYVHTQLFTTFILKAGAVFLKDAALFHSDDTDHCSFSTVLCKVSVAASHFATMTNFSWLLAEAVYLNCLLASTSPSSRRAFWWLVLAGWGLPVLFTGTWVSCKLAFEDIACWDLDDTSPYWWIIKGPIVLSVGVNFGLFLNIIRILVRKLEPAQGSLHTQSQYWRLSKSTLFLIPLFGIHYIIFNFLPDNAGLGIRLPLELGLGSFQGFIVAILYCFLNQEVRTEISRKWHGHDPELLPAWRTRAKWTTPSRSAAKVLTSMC
Particulars: 10µM, Favipiravir 100μM.

For assay [7], the target named is T7, 348 GPCRs (Homo sapiens, UniProt Q8WXD0).
T7 construct: expressed in transfected cells; host or cells: HEK293A
Particulars: RXFP2 (relaxin/insulin-like family peptide receptor 2); 10µM, Favipiravir 100μM.

Assay [8] addresses T8, 348 GPCRs (Homo sapiens, UniProt Q9NYW0).
T8 construct: expressed in transfected cells; host or cells: HEK293A
T8 sequence (Q9NYW0 1-307): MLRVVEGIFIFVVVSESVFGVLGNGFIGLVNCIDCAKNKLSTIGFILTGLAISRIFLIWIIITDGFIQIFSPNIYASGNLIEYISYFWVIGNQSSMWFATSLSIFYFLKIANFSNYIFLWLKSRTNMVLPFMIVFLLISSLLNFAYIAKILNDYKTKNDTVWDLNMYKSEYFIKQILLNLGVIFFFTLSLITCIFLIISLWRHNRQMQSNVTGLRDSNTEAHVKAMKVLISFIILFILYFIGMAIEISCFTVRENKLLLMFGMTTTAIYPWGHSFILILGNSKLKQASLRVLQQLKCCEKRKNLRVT
The settings on record: 10µM, Favipiravir 100μM.

Assay [9] has as its target T9, 348 GPCRs (Homo sapiens, UniProt Q9NZD1).
T9 construct: expressed in transfected cells; host or cells: HEK293A
The settings on record: 10µM, Favipiravir 100μM.

Setting [10] is: CCBP2 (chemokine binding protein 2), read-out: % GPCR activation compared to TPA.
The mark [11] stands for this setting: ADORA2B (adenosine A2b receptor), read-out: % GPCR activation compared to TPA.
Setting [12] is: GPCR V2 (arginine vasopressin receptor 2), read-out: % GPCR activation compared to TPA.
The mark [13] stands for this setting: GPCR α1B (adrenoceptor alpha 1B), read-out: % GPCR activation compared to TPA.
Setting [14] is: CCR8 (C-C motif chemokine receptor 8), read-out: % GPCR activation compared to TPA.
Setting [15] is: GHRHR (growth hormone releasing hormone receptor), read-out: % GPCR activation compared to TPA.
[16] abbreviates: TAS2R10 (taste receptor, type 2, member 10), read-out: % GPCR activation compared to TPA.
Where [17] appears, read: GPRC5D (G protein-coupled receptor class C group 5 member D), read-out: % GPCR activation compared to TPA.
Where [18] appears, read: read-out: % GPCR activation compared to TPA, CCBP2 (chemokine binding protein 2).
Setting [19] is: read-out: % GPCR activation compared to TPA, ADORA2B (adenosine A2b receptor).
Setting [20] is: read-out: % GPCR activation compared to TPA, GPCR V2 (arginine vasopressin receptor 2).
Where [21] appears, read: read-out: % GPCR activation compared to TPA, GPCR α1B (adrenoceptor alpha 1B).
Where [22] appears, read: read-out: % GPCR activation compared to TPA, CCR8 (C-C motif chemokine receptor 8).
Setting [23] is: read-out: % GPCR activation compared to TPA, GHRHR (growth hormone releasing hormone receptor).
The mark [24] stands for this setting: read-out: % GPCR activation compared to TPA, TAS2R10 (taste receptor, type 2, member 10).
The mark [25] stands for this setting: read-out: % GPCR activation compared to TPA, GPRC5D (G protein-coupled receptor class C group 5 member D).

T3 sequence (P30518 whole entry): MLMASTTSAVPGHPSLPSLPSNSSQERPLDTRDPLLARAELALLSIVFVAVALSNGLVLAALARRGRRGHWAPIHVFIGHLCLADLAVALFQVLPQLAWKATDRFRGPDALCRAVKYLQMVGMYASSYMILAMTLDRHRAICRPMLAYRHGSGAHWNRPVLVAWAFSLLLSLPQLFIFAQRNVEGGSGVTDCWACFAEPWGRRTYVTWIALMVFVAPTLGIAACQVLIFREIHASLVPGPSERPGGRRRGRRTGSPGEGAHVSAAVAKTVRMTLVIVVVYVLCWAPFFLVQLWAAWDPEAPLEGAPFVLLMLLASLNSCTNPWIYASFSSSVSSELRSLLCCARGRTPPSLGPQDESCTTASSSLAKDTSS
T9 sequence (Q9NZD1 whole entry): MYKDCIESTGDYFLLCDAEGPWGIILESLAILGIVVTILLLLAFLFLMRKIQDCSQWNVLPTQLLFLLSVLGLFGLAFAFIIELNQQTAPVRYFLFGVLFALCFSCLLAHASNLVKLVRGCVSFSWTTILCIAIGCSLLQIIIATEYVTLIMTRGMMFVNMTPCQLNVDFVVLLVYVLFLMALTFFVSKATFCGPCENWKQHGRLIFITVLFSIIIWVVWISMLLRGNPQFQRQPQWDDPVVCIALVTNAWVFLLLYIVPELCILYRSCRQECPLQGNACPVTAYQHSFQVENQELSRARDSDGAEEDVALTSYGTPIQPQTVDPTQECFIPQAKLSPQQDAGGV
T7 sequence (Q8WXD0 whole entry): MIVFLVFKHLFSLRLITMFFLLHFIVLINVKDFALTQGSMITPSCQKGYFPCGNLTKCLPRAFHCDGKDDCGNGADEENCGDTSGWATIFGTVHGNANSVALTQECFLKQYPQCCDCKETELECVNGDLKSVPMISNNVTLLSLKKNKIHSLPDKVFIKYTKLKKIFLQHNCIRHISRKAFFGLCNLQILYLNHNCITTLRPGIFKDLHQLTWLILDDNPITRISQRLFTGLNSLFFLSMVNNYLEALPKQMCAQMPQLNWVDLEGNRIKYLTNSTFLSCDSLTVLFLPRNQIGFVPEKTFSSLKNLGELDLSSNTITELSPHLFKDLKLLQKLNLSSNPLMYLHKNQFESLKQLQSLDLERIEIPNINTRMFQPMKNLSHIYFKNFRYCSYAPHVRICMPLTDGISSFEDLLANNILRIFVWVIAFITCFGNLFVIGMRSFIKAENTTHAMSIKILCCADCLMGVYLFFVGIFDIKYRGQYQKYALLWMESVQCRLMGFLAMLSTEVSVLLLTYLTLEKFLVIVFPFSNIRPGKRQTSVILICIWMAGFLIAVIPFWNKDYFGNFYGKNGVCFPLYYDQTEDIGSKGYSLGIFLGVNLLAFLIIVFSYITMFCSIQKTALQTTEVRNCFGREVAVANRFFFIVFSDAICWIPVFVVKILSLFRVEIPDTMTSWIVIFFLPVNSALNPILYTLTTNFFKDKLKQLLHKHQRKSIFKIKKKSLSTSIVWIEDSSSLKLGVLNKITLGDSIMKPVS
T5 sequence (P51685 whole entry): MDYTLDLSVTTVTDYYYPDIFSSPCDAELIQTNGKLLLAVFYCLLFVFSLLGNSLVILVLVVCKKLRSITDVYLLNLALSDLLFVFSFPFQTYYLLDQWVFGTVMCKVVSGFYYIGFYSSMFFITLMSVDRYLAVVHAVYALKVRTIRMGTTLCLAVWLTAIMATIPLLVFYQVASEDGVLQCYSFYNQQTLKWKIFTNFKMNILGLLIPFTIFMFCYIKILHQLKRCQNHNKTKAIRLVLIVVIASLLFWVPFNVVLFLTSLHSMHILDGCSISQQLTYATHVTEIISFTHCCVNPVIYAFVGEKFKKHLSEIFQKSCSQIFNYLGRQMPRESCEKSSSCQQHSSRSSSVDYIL

For `CC(C)C(=O)OC[C@H]1O[C@@H](n2ccc(NO)nc2=O)[C@H](O)[C@@H]1O` [molnupiravir], the activation at 100 µM in [1] (setting [10]) was -0.55%; in assay [6] (setting [15]), -0.966%; in assay [8] (setting [16]), -0.25%. For the same compound, the activation at 10 µM in [2] (setting [11]) is -1.6%; in assay [3] (setting [12]) it was -0.988%; in assay [4] (setting [13]), 0.493%; in assay [5] (setting [14]) it was -2.68%; in assay [9] (setting [17]), -0.168%. Further, the “% GPCR activation compared to TPA” value in assay [7] is -1.679%.

`CC(C)OC(=O)[C@H](C)N[P@](=O)(OC[C@H]1O[C@@H](n2ccc(=O)[nH]c2=O)[C@](C)(F)[C@@H]1O)Oc1ccccc1` [sofosbuvir]: the activation at 100 µM was -0.681% in [1] (setting [18]), -2.19% in assay [6] (setting [23]) and -0.149% in assay [8] (setting [24]). Also, the activation at 10 µM is 0.00372% in assay [2] (setting [19]); -0.417% in assay [3] (setting [20]); 0.342% in [4] (setting [21]); -2.89% in [5] (setting [22]); 0.492% in assay [9] (setting [25]). In addition, the “% GPCR activation compared to TPA” value in assay [7] is reported as -1.511%.

Regarding `N#C[C@@]1(c2ccc3c(N)ncnn23)O[C@H](CO)[C@@H](O)[C@H]1O` [GS441524], the activation at 100 µM in [1] (setting [10]) is -3.26%; in assay [6] (setting [15]) it was 1.38%; in assay [8] (setting [16]), 0.66%. In addition, the activation at 10 µM is 1.2% in [2] (setting [11]); -0.765% in [3] (setting [12]); -1.17% in [4] (setting [13]); -5.03% in assay [5] (setting [14]); -1.93% in [9] (setting [17]). In addition, the “% GPCR activation compared to TPA” value in assay [7] is given as -1.305%.

`NC(=O)c1nc(F)cnc1O` [favipiravir, 6-fluoro-3-hydroxy-2-pyrazinecarboxamide]: the activation at 100 µM in [1] (setting [10]) was -6.14%; in [3] (GPCR V2 (arginine vasopressin receptor 2), 100μM, read-out: % GPCR activation compared to TPA) it was 1.41%; in assay [4] (GPCR α1B (adrenoceptor alpha 1B), 100μM, read-out: % GPCR activation compared to TPA), -1.61%; in assay [6] (setting [15]), 6.96%; in assay [8] (setting [16]) it was 1.23%. The activation at 10 µM in assay [2] (setting [11]) was 1.67%; in assay [5] (setting [14]) it was -0.669%; in [9] (setting [17]) it was -2.09%. In [7], the “% GPCR activation compared to TPA” value is -0.6733%.

In the case of `CCC(CC)COC(=O)[C@H](C)N[P@](=O)(OC[C@H]1O[C@@](C#N)(c2ccc3c(N)ncnn23)[C@H](O)[C@@H]1O)Oc1ccccc1` [remdesivir], the activation at 100 µM in assay [1] (setting [18]) is -7.69%; in [6] (setting [23]), 5.92%; in assay [8] (setting [24]), 1.89%. In addition, the activation at 10 µM in assay [2] (setting [19]) was 1.79%; in assay [3] (setting [20]), 1.36%; in assay [4] (setting [21]), -0.0202%; in assay [5] (setting [22]) it was 0.425%; in assay [9] (setting [25]), -0.473%. The “% GPCR activation compared to TPA” value in assay [7] is recorded as 0.3691%.
